Bounds are passed on as bounds.

Sequence of human integrin αvβ6 (P06756 31-992): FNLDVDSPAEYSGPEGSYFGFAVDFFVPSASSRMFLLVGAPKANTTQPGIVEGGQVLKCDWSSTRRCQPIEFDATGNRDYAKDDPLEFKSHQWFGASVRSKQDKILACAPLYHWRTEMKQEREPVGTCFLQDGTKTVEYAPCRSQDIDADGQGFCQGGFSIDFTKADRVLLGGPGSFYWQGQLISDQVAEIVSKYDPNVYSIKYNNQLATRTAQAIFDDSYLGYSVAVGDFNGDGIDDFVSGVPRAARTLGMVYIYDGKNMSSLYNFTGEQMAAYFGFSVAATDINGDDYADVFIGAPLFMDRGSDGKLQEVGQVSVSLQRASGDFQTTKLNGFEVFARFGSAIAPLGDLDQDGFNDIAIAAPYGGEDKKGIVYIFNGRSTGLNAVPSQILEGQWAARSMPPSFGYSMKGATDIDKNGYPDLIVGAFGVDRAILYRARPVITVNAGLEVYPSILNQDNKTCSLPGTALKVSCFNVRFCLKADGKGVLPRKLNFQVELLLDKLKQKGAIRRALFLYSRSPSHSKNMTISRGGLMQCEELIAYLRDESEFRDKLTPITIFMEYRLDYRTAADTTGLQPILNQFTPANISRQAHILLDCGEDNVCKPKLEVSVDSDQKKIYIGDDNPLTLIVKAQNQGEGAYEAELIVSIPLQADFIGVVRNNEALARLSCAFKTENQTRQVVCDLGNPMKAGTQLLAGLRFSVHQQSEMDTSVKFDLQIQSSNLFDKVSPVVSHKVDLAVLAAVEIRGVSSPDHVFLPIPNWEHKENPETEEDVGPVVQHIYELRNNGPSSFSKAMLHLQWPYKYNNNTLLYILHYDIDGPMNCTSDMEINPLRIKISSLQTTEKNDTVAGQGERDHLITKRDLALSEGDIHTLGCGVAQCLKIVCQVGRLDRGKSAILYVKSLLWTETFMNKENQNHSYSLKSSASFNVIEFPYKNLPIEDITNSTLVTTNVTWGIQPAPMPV
Sequence of human integrin αvβ6 (P18564 22-707): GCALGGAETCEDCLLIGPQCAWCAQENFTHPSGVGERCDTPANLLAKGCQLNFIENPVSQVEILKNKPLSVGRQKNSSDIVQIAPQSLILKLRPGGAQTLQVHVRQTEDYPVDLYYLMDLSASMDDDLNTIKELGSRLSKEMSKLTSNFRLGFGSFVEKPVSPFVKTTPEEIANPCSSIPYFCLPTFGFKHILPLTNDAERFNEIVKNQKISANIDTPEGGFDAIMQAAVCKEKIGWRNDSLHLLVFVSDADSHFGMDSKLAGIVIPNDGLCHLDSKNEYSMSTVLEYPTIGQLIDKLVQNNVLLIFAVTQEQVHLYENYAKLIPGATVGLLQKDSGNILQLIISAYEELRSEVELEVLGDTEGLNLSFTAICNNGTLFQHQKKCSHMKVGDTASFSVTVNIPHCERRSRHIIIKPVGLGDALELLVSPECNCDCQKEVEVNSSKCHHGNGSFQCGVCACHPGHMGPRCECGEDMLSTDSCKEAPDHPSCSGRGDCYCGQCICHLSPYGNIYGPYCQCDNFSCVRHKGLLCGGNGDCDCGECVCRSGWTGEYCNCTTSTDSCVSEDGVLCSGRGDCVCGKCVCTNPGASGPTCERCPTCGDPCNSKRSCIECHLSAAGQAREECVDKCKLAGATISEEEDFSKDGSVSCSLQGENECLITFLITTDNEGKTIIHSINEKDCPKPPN

The target in this experiment is human integrin αvβ6 (Homo sapiens (Human), UniProt P06756+P18564). The experiment is described as follows: Proximity-based integrin receptor binding assay (ALPHASCREEN) for inhibitor potency. As to conditions: inhibition of binding of TGF-b1 LAP to human integrin αvβ6; values given in ranges. The essentials:
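AlphaScreen: integrin, compound, TGF-b1 LAP, biotinylated anti-LAP antibody and acceptor beads incubated 2 hours, then streptavidin donor beads 30 minutes, at room temperature in 50 mM Tris-HCl pH 7.5, 0.1% BSA, 1 mM CaCl2 and MgCl2. Excitation 680 nm, emission 520-620 nm; IC50 by four-parameter logistic fit.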
In general terms: In Alpha technology, singlet oxygen from a donor bead excites a nearby acceptor bead.
The IC50 is the midpoint of a concentration-inhibition curve. On to `CC(C)(C)OC(=O)N1CC(C(=O)N[C@@H](CCO[C@H]2C[C@H](CCc3ccc4c(n3)NCCC4)C2)C(=O)O)C1` [Compound 173, N-(1-(tert-butoxycarbonyl)azetidine-3-carbonyl)-O-(trans-3-(2-(5,6,7,8-tetrahydro-1,8-naphthyridin-2-yl)ethyl)cyclobutyl)homoserine], for which the IC50 is under 50 nM.

Regarding `O=C(O)[C@H](CCO[C@H]1C[C@H](CCc2ccc3c(n2)NCCC3)C1)NC(=O)C1(C(F)(F)F)CCOCC1` [Compound 174, O-(trans-3-(2-(5,6,7,8-tetrahydro-1,8-naphthyridin-2-yl)ethyl)cyclobutyl)-N-(4-(trifluoromethyl)tetrahydro-2H-pyran-4-carbonyl)homoserine], the IC50 was under 50 nM.

As to `Cc1cc(F)cc(C)c1C(=O)NC(CCOC1CC(CCc2ccc3c(n2)NCCC3)C1)C(=O)O` (centres unmarked) [Compound 175], the half-inhibitory concentration (IC50) was under 50 nM.

Regarding `CC1(C(=O)N[C@@H](CCO[C@H]2C[C@@H](CCc3ccc4c(n3)NCCC4)C2)C(=O)O)CCOCC1` [Compound 179, N-(4-methyltetrahydro-2H-pyran-4-carbonyl)-O-(cis-3-(2-(5,6,7,8-tetrahydro-1,8-naphthyridin-2-yl)ethyl)cyclobutyl) homoserine], the half-inhibitory concentration (IC50) was 50 to 250 nM.

Consider `CCC1(C(=O)N[C@@H](CCO[C@H]2C[C@H](CCc3ccc4c(n3)NCCC4)C2)C(=O)O)CCC(F)(F)CC1` [Compound 181, N-(1-ethyl-4,4-difluorocyclohexane-1-carbonyl)-O-(trans-3-(2-(5,6,7,8-tetrahydro-1,8-naphthyridin-2-yl)ethyl)cyclobutyl)homoserine], for which the IC50 is under 50 nM.

With `Cc1ccc2c(c1)N(C(=O)C1(C(=O)N[C@@H](CCO[C@H]3C[C@H](CCc4ccc5c(n4)NCCC5)C3)C(=O)O)CC1)CC2` [Compound 182, N-(1-(6-methylindoline-1-carbonyl)cyclopropane-1-carbonyl)-O-(trans-3-(2-(5,6,7,8-tetrahydro-1,8-naphthyridin-2-yl)ethyl)cyclobutyl)homoserine], the IC50 was 50 to 250 nM.

For `O=C(O)[C@H](CCO[C@H]1C[C@@H](CCc2ccc3c(n2)NCCC3)C1)NC(=O)C1(C(F)(F)F)CCOCC1` [Compound 183, O-(cis-3-(2-(5,6,7,8-tetrahydro-1,8-naphthyridin-2-yl)ethyl)cyclobutyl)-N-(4-(trifluoromethyl)tetrahydro-2H-pyran-4-carbonyl)homoserine], the IC50 lay in the range of 50 to 250 nM.

As for `CC(C)(C)OC(=O)NCC1(C(=O)N[C@@H](CCO[C@H]2C[C@@H](CCc3ccc4c(n3)NCCC4)C2)C(=O)O)CCOCC1` [Compound 184, N-(4-(((tert-butoxycarbonyl)amino)methyl)tetrahydro-2H-pyran-4-carbonyl)-O-(cis-3-(2-(5,6,7,8-tetrahydro-1,8-naphthyridin-2-yl)ethyl)cyclobutyl)homoserine], the IC50 is under 50 nM.

On to `O=C(O)[C@H](CCO[C@H]1C[C@H](CCc2ccc3c(n2)NCCC3)C1)NC(=O)C1(Cc2cccnc2)CC1` [Compound 185, N-(1-(pyridin-3-ylmethyl)cyclopropane-1-carbonyl)-O-(trans-3-(2-(5,6,7,8-tetrahydro-1,8-naphthyridin-2-yl)ethyl)cyclobutyl)homoserine], for which the IC50 is under 50 nM.

Consider `CC1(C(=O)NC(CCOCCCCc2ccc3c(n2)NCCC3)C(=O)O)CCOCC1` (centres unmarked) [Compound 187, N-(4-methyltetrahydro-2H-pyran-4-carbonyl)-O-(4-(5,6,7,8-tetrahydro-1,8-naphthyridin-2-yl)butyl)homoserine], for which the half-inhibitory concentration (IC50) lay in the range of 250 to 1000 nM.

Take `O=C(NC(CCOCCCCc1ccc2c(n1)NCCC2)C(=O)O)c1c(Cl)cccc1Cl` (centres unmarked) [Compound 188, N-(2,6-dichlorobenzoyl)-O-(4-(5,6,7,8-tetrahydro-1,8-naphthyridin-2-yl)butyl)homoserine]: the IC50 lay in the range of 50 to 250 nM.

In the case of `O=C(NC(CCOCCCCc1ccc2c(n1)NCCC2)C(=O)O)c1c(Cl)cncc1Cl` (centres unmarked) [Compound 189, N-(3,5-dichloroisonicotinoyl)-O-(4-(5,6,7,8-tetrahydro-1,8-naphthyridin-2-yl)butyl)homoserine], the half-inhibitory concentration (IC50) lay in the range of 50 to 250 nM.

`CC(C)(C)c1ccc(C2(C(=O)N[C@@H](CCO[C@H]3C[C@H](CCc4ccc5c(n4)NCCC5)C3)C(=O)O)CCC2)cc1` [Compound 190, N-(1-(4-(tert-butyl)phenyl)cyclobutane-1-carbonyl)-O-(trans-3-(2-(5,6,7,8-tetrahydro-1,8-naphthyridin-2-yl)ethyl)cyclobutyl)homoserine]: the half-maximal inhibitory concentration (IC50) is under 50 nM.

For the compound `Cc1cncc(Cl)c1C(=O)N[C@@H](CCO[C@H]1C[C@@H](CCc2ccc3c(n2)NCCC3)C1)C(=O)O` [Compound 199, N-(3-chloro-5-methylisonicotinoyl)-O-(cis-3-(2-(5,6,7,8-tetrahydro-1,8-naphthyridin-2-yl)ethyl)cyclobutyl)homoserine], the half-maximal inhibitory concentration (IC50) lay in the range of 50 to 250 nM.

With `CC(C)(C)OC(=O)NC(CCO[C@H]1C[C@H](CCc2ccc3c(n2)NCCC3)C1)C(=O)O` (stereo partly drawn) [Example 12A, N-(tert-butoxycarbonyl)-O-(trans-3-(2-(5,6,7,8-tetrahydro-1,8-naphthyridin-2-yl)ethyl)cyclobutyl)homoserine], the IC50 lay in the range of 50 to 250 nM.

For `O=C(O)[C@H](CCO[C@H]1C[C@H](CCc2ccc3c(n2)NCCC3)C1)Nc1ncnc2ccccc12` [Example 224, N-(quinazolin-4-yl)-O-(trans-3-(2-(5,6,7,8-tetrahydro-1,8-naphthyridin-2-yl)ethyl)cyclobutyl)homoserine], the IC50 is under 50 nM.

As for `CC(C)(C)c1nccc(N[C@@H](CCO[C@H]2C[C@H](CCc3ccc4c(n3)NCCC4)C2)C(=O)O)n1` [Example 225, N-(2-(tert-butyl)pyrimidin-4-yl)-O-(trans-3-(2-(5,6,7,8-tetrahydro-1,8-naphthyridin-2-yl)ethyl)cyclobutyl)homoserine], the IC50 lay in the range of 250 to 1000 nM.

Consider `CC(C)(C)c1ccnc(N[C@@H](CCO[C@H]2C[C@H](CCc3ccc4c(n3)NCCC4)C2)C(=O)O)n1` [Example 226, N-(4-(tert-butyl)pyrimidin-2-yl)-O-(trans-3-(2-(5,6,7,8-tetrahydro-1,8-naphthyridin-2-yl)ethyl)cyclobutyl)homoserine], for which the half-maximal inhibitory concentration (IC50) is 250 to 1000 nM.

Regarding `O=C(O)C(CCO[C@H]1C[C@H](CCc2ccc3cccnc3n2)C1)Nc1ncnc2ccccc12` (stereo partly drawn) [Example 227, O-(trans-3-(2-(1,8-naphthyridin-2-yl)ethyl)cyclobutyl)-N-(quinazolin-4-yl)homoserine], the IC50 was in the range of 250 to 1000 nM.

For `O=C(O)C(CCO[C@H]1C[C@H](CCc2ccc3cccnc3n2)C1)Nc1ncnc2ccccc12` (stereo partly drawn) [Example 228, O-(trans-3-(2-(1,8-naphthyridin-2-yl)ethyl)cyclobutyl)-N-(quinazolin-4-yl)homoserine], the IC50 was under 50 nM.

`CC(C)(C)c1cc(N[C@@H](CCO[C@H]2C[C@H](CCc3ccc4c(n3)NCCC4)C2)C(=O)O)ncn1` [Example 229, N-(6-(tert-butyl)pyrimidin-4-yl)-O-(trans-3-(2-(5,6,7,8-tetrahydro-1,8-naphthyridin-2-yl)ethyl)cyclobutyl)homoserine]: the concentration for half-maximal inhibition (IC50) lay within 50 to 250 nM.

For “N-isonicotinoyl-O-(trans-3-(2-(5,6,7,8-tetrahydro-1,8-naphthyridin-2-yl)ethyl)cyclobutyl)-D-homoserine [Compound 58]”, the concentration for half-maximal inhibition (IC50) is over 1000 nM.

For “N—((R)-2-hydroxy-2-phenylacetyl)-O-(4-(5,6,7,8-tetrahydro-1,8-naphthyridin-2-yl)butyl)-D-homoserine [Compound 77]”, the 50% inhibitory concentration (IC50) was over 1000 nM.

The values are drawn from patent US11180494B2, “Substituted amino acids as integrin inhibitors” (Pliant Therapeutics, Inc., priority 2018, dated 2021).
